Among the test systems are U-251; UACC-62; 786-0; MDA-MB-231; OVCAR-5; SF-295; OVCAR-4; SK-MEL-28; UACC-257; HL-60; SR; HOP-62; HT-29; IGROV-1; SNB-19; A549; SN12C; HCT-15; Malme-3M; OVCAR-3.
Test in all cases: NCI tumour cell line growth inhibition, 48 h

The values that follow come from ChEMBL document CHEMBL1201862, “PubChem BioAssay data set” (2004).

The structures appear in SMILES notation.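 These data come from cells grown in 96-well plates and exposed to compound for 48 hours at five concentrations. Here, GI50 denotes the concentration required for 50% inhibition of growth.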 Activity calls are given as the source filed them. No stated cut-off is given here; in the data, active = GI50 up to about 1.1 µM and inactive = higher.

Take `O=c1[nH]nc(Nc2ccccc2)c2nnn(Cc3ccccc3)c12`: the GI50 in the assay on U-251 was 30.7 µM (inactive); in the assay on UACC-62 it was > 100 µM (inactive); in the assay on 786-0 it was 25.3 µM (inactive); in the assay with MDA-MB-231, 71.3 µM (inactive); in the assay with OVCAR-5 it was > 100 µM (inactive); in the assay with SF-295, 86.9 µM (inactive). Also, the GI50 with OVCAR-4 was 8.32 µM (inactive); in the assay with SK-MEL-28 it was > 100 µM (inactive); in the assay with UACC-257 it was > 100 µM (inactive); in the assay on HL-60, > 100 µM (inactive); in the assay on SR, > 100 µM (inactive); in the assay with HOP-62, 4.52 µM (inactive). Besides, the GI50 with HT-29 was > 100 µM (inactive); in the assay with IGROV-1, > 100 µM (inactive); in the assay with SNB-19, 74 µM (inactive); in the assay with A549 it was > 100 µM (inactive); in the assay with SN12C it was > 100 µM (inactive); in the assay with HCT-15, above 100 µM.

With `CCCCCCCCCCCCCCCC(=O)OC(COC(C)=O)CO[PH](=O)O` (configuration not stated), the GI50 was 21.6 µM (inactive) in the assay with U-251; 37.3 µM (inactive) with UACC-62; 20.3 µM (inactive) with 786-0; 21.7 µM (inactive) with MDA-MB-231; 16.1 µM (inactive) in the assay on OVCAR-5; 17.6 µM (inactive) in the assay with SF-295. The GI50 was 58.2 µM (inactive) in the assay with OVCAR-4; 35.2 µM (inactive) in the assay with SK-MEL-28; 34 µM (inactive) in the assay on UACC-257; 31.9 µM (inactive) in the assay on HL-60; 24.9 µM (inactive) in the assay with SR; 34.8 µM (inactive) in the assay with Malme-3M. Further, the GI50 was 22.3 µM (inactive) in the assay on IGROV-1; 36.5 µM (inactive) with SNB-19; 19.5 µM (inactive) in the assay on A549; 48.5 µM (inactive) in the assay with SN12C; 24 µM in the assay with HCT-15; > 100 µM (inactive) in the assay with OVCAR-3.

For the molecule `N=C(N)NS(=O)(=O)c1ccc(/N=N/c2c(O)c(C(=O)O)cc3ccccc23)cc1`, the GI50 is > 100 µM (inactive) in the assay with U-251; > 100 µM (inactive) with UACC-62; > 100 µM (inactive) in the assay on 786-0; 47.4 µM (inactive) with MDA-MB-231; > 100 µM (inactive) in the assay on OVCAR-5; > 100 µM (inactive) in the assay with SF-295. For the same molecule, the GI50 in the assay with OVCAR-4, in the assay with SK-MEL-28, with UACC-257, with HL-60, in the assay with SR and with Malme-3M was > 100 µM (inactive) in each case. Besides, the GI50 is > 100 µM (inactive) in the assay with HOP-62; > 100 µM (inactive) in the assay with HT-29; > 100 µM (inactive) in the assay on IGROV-1; > 100 µM (inactive) in the assay with A549; > 100 µM (inactive) with SN12C; above 100 µM in the assay on HCT-15. For the same molecule, the GI50 with OVCAR-3 was > 100 µM (inactive).

As for `Cc1ccc(S(=O)(=O)NC(=O)NC(Cc2ccc(O)cc2)C(=O)O)cc1` (configuration not stated), the GI50 in the assay with U-251, with 786-0, in the assay on MDA-MB-231, with OVCAR-5, in the assay on SF-295 and with OVCAR-4 was > 100 µM (inactive) throughout. Moreover, the GI50 in the assay on SK-MEL-28, with UACC-257, in the assay with HL-60, in the assay on SR, in the assay with Malme-3M and in the assay with HOP-62 was > 100 µM (inactive) throughout. Moreover, the GI50 in the assay on HT-29 was > 100 µM (inactive); in the assay with IGROV-1 it was > 100 µM (inactive); in the assay on SNB-19, > 100 µM (inactive); with A549 it was > 100 µM (inactive); in the assay with SN12C, > 100 µM (inactive); with HCT-15, above 100 µM.

As to `Cc1cc2nc(N3C(=O)/C(=C/c4ccccc4S)N=C3c3ccccc3)sc2cc1C`, the GI50 was 31.5 µM (inactive) in the assay on U-251; 32 µM (inactive) in the assay with UACC-62; 18.7 µM (inactive) in the assay on 786-0; 18.5 µM (inactive) with MDA-MB-231; 26.5 µM (inactive) in the assay with OVCAR-5; 27.4 µM (inactive) in the assay with SF-295. Moreover, the GI50 was 43.1 µM (inactive) in the assay with OVCAR-4; 54.2 µM (inactive) in the assay with SK-MEL-28; 23.3 µM (inactive) in the assay with UACC-257; 30.1 µM (inactive) with HL-60; 33.2 µM (inactive) in the assay on SR; 88.1 µM (inactive) in the assay with HOP-62. Besides, the GI50 in the assay on HT-29 was 21 µM (inactive); in the assay with IGROV-1, 18.8 µM (inactive); in the assay with SNB-19, 55.8 µM (inactive); with A549, 36.6 µM (inactive); in the assay on SN12C it was 25.8 µM (inactive); with HCT-15 it was 32.7 µM. Moreover, in the assay on OVCAR-3, the GI50 was 49.3 µM (inactive).

In the case of `O=C1/C(=C\c2ccco2)Oc2ccccc21`, the GI50 with U-251, with UACC-62, in the assay with 786-0, in the assay with MDA-MB-231, with OVCAR-5 and in the assay on SF-295 was > 100 µM (inactive) each time. For the same molecule, the GI50 with OVCAR-4 was > 100 µM (inactive); in the assay on SK-MEL-28 it was > 100 µM (inactive); in the assay on UACC-257, > 100 µM (inactive); with HL-60 it was 39.4 µM (inactive); with SR, 55.2 µM (inactive); in the assay with HOP-62 it was > 100 µM (inactive). Further, the GI50 with HT-29 is > 100 µM (inactive); with IGROV-1, 99.1 µM (inactive); in the assay on SNB-19, > 100 µM (inactive); in the assay with A549, > 100 µM (inactive); in the assay with SN12C, > 100 µM (inactive); in the assay on HCT-15, above 100 µM. In addition, in the assay with OVCAR-3, the GI50 is 98.9 µM (inactive).

Take `COc1ccccc1N1CCN(CCCNC(=O)c2cc(Cl)c(N)c(Cl)c2)CC1`: the GI50 in the assay on U-251 is 27 µM (inactive); with UACC-62, 35 µM (inactive); with 786-0, 33.3 µM (inactive); in the assay with MDA-MB-231, 22.9 µM (inactive); in the assay on OVCAR-5 it was 44.6 µM (inactive); in the assay with SF-295, 16.3 µM (inactive). Also, the GI50 in the assay with OVCAR-4 was 52 µM (inactive); in the assay with SK-MEL-28 it was 32.4 µM (inactive); in the assay on UACC-257 it was 22.8 µM (inactive); with HL-60, 15.5 µM (inactive); in the assay on SR it was 12.7 µM (inactive); with Malme-3M it was 18.8 µM (inactive). Besides, the GI50 is 29.7 µM (inactive) with HOP-62; 24.1 µM (inactive) in the assay with HT-29; 71.6 µM (inactive) in the assay on IGROV-1; 41.3 µM (inactive) in the assay on SNB-19; 61.9 µM (inactive) in the assay on A549; 20 µM (inactive) in the assay on SN12C. The same molecule showed a GI50 with HCT-15 of 18.5 µM.

Regarding `Cc1ccc(S(=O)(=O)/N=C2/N(C)CCCS2(=O)=O)cc1`, the GI50 in the assay with U-251 was > 100 µM (inactive); with UACC-62, > 100 µM (inactive); in the assay on 786-0, > 100 µM (inactive); in the assay on MDA-MB-231, 18 µM (inactive); in the assay with OVCAR-5, > 100 µM (inactive); in the assay with SF-295 it was 0.17 µM (active). Besides, the GI50 in the assay with OVCAR-4, in the assay with SK-MEL-28, with UACC-257, in the assay on HL-60, in the assay with SR and in the assay on HOP-62 was > 100 µM (inactive) throughout. For the same molecule, the GI50 is > 100 µM (inactive) in the assay with HT-29; > 100 µM (inactive) in the assay on IGROV-1; > 100 µM (inactive) in the assay on SNB-19; > 100 µM (inactive) in the assay with A549; > 100 µM (inactive) with SN12C; above 100 µM in the assay with HCT-15. In the assay with OVCAR-3, the GI50 is > 100 µM (inactive).

For `CCC(CCN)(CCN)[N+](=O)[O-]`, the GI50 in the assay on U-251, in the assay with UACC-62, with 786-0, in the assay with MDA-MB-231, in the assay with OVCAR-5 and with SF-295 was > 100 µM (inactive) each time. The GI50 in the assay on UACC-257, in the assay with HL-60, in the assay with SR, in the assay on Malme-3M, in the assay with HT-29 and with IGROV-1 was > 100 µM (inactive) each time. For the same molecule, the GI50 was > 100 µM (inactive) in the assay on A549, > 100 µM (inactive) in the assay on SN12C and above 100 µM in the assay with HCT-15.

`CN/C(N)=N/N=C1/C(=O)Nc2ccccc21`: the GI50 in the assay with U-251, with UACC-62, in the assay with 786-0, in the assay on MDA-MB-231, in the assay on OVCAR-5 and in the assay on SF-295 was > 100 µM (inactive) in each case. Besides, the GI50 in the assay with OVCAR-4, in the assay on SK-MEL-28, with UACC-257, with HL-60, in the assay with SR and in the assay with Malme-3M was > 100 µM (inactive) throughout. Further, the GI50 in the assay with HOP-62, in the assay with HT-29, in the assay on IGROV-1, with SNB-19, in the assay on A549 and in the assay on SN12C was > 100 µM (inactive) each time. The molecule also came in with a GI50 in the assay with HCT-15 above 100 µM.

As to `COc1cccc(/C=C2\N=C(c3ccccc3)OC2=O)c1`, the GI50 was 63.7 µM (inactive) in the assay on U-251; > 100 µM (inactive) in the assay with UACC-62; 74.5 µM (inactive) in the assay on 786-0; > 100 µM (inactive) in the assay on MDA-MB-231; > 100 µM (inactive) in the assay with OVCAR-5; > 100 µM (inactive) in the assay with SF-295. In addition, the GI50 with OVCAR-4 is 53.6 µM (inactive); in the assay with SK-MEL-28 it was > 100 µM (inactive); in the assay on UACC-257, > 100 µM (inactive); in the assay on HL-60, 10.7 µM (inactive); in the assay on SR it was 23.1 µM (inactive); in the assay with HOP-62, 61.1 µM (inactive). For the same molecule, the GI50 in the assay with HT-29 was > 100 µM (inactive); in the assay on IGROV-1, 34.1 µM (inactive); in the assay with SNB-19 it was 35.1 µM (inactive); in the assay with A549, > 100 µM (inactive); with SN12C it was 65.2 µM (inactive); with HCT-15, 34 µM. The GI50 with OVCAR-3 was 63.1 µM (inactive).
